Broadly, the CC50 is the concentration at which the toxic effect on the cells reaches its halfway point.

For series [1], the system named is mitochondrial spare respiratory capacity in PC-3 cells. Nature of the series: Oxygen consumption rate / spare respiratory capacity in PC-3 cells. The note with it: PC-3 cells, 3-day treatments.
Method: Mitochondrial respiration was monitored by measuring the rate of oxygen consumption (OCR) of PC-3 cells after 3-day treatments with the compounds, using a Seahorse extracellular flux analyzer (XF^e-96) based on published protocols ([22][–][24]). The optimal cell seeding was determined by measuring the basal OCR of PC-3 cells that were seeded at different densities of 2.5 × 10^3, 5 × 10^3, 7.5 × 10^3, and 10 × 10^3 cells/well in XF 96-well plates (Seahorse Bioscience, North Billerica, MA) and incubated with 0.5% dimethyl sulfoxide (DMSO) for 3 days. […] Each reagent in the Mito Stress test kit (Seahorse Biosciences), i.e., ATP synthase inhibitor oligomycin, mitochondrial uncoupler carbonyl cyanide-4-(trifluoromethoxy)phenylhydrazone (FCCP), and a fixed-ratio mixture of the mitochondrial complex I (NADH dehydrogenase) inhibitor rotenone and the complex III (CoQH2-cytochrome c reductase) inhibitor antimycin A, was titrated. The lowest concentration that reached the maximal effect was chosen for each reagent. The OCR signals were normalized by cell numbers using DNA content determined by Hoechst's stain as described below.
PC-3 cells were seeded at a density of 5 × 10^3 cells/well in XF 96-well plates and incubated with the compounds for 3 days. On the day of the assay, the cell medium was replaced with XF assay medium (pH 7.4) containing 10 mM glucose and 1 mM freshly prepared pyruvate. Mitochondrial respiration was monitored by measuring OCR on a Seahorse extracellular flux analyzer (XF^e-96). All concentrations listed are the final concentration after mixing unless noted otherwise. […] Spare respiratory capacity was obtained by subtracting the rate of basal respiration from the rate of maximal respiration.
The cells were lysed by freezing at −80°C for >2 h. […] In parallel, another set of cells was treated with the compounds for 3 days and the ATP levels were measured using CellTiter Glo viability reagents (Promega, Madison, WI).
Series [2] is described as follows: Bone marrow myeloid progenitor colony assay, 14 days. Type of series: cell-based, human. The note with it: human, read-out: Mean CC50 ± SD in Bone marrow cells Myeloid; for CC50 at 14 days: human bone marrow myeloid progenitors.
Series [3] in a line: Bone marrow erythroid progenitor colony assay, 14 days. Conditions: human, read-out: Mean CC50 ± SD in Bone marrow cells Erythroid; for CC50 at 14 days: human bone marrow erythroid progenitors. Type of series: cell-based, human.
The next series has as its target T1, recombinant human PolRMT (Homo sapiens, UniProt O00411).
T1 construct: purchased Enzymax (Lexington, KY)
Nature of the series: Single-nucleotide incorporation by PolRMT. Type of series: biochemical. Conditions: triphosphate form, fixed saturating concentration 500 μM, rate relative to corresponding natural rNTP. The source says:
Activated fish sperm DNA was purchased from USB/Affymetrix (Santa Clara, CA) and used as a template for the DNA polymerases alpha, beta, and gamma. The DNA template used in the RNA Pol II assay was a 1,188-bp restriction fragment containing the cytomegalovirus (CMV) immediate early promoter (Promega, Madison, WI). The RNA and DNA oligonucleotides used in the mitochondrial RNA polymerase assay (see Table S1 in the supplemental material) were synthesized and PAGE purified by Thermo Scientific/Dharmacon (Lafayette, CO). RNA primer R12 was 5′-^32P-phosphorylated with [γ-^32P]ATP (3,000 Ci/mmol) and T4 kinase (New England BioLabs, Ipswich, MA).
Human DNA polymerase alpha, isolated from HeLa cell extracts, was from CHIMERx (Madison, WI). Recombinant human DNA polymerase beta, expressed in E. coli, was a gift from Zucai Suo at The Ohio State University. Recombinant human DNA polymerase gamma (including both the large subunit and the small subunit) was cloned, expressed, and purified from insect cells by Gilead Sciences (Foster City, CA) ([13]). RNA PolII was purchased as part of the HeLaScribe nuclear extract in vitro transcription system kit from Promega (Madison, WI). The recombinant human PolRMT and the transcription factors mitochondrial transcription factor A (mtTFA) and B2 (mtTFB2) were purchased from Enzymax (Lexington, KY). FLAG epitope-tagged RNA PolI and PolIII complexes were isolated from rat NSN1 cells and HeLa cells, respectively ([17], [18]). The inhibition of DNA polymerases alpha, beta, and gamma, PolRMT, and PolII and the rate of single-nucleotide incorporation by PolRMT have been described previously in detail ([12], [13], [19]). Inhibition of RNA PolI and PolIII was studied using published methods ([20], [21]). All concentrations were final unless noted otherwise. For the RNA PolI inhibition assay, a reaction mixture containing 50 mM HEPES (pH 7.9), 20% glycerol, 100 mM KCl, 1 mM dithiothreitol (DTT), 50 μg/ml calf thymus DNA, 4 mM MgCl2, 5 or 80 μM UTP (0.25 μl of [5,6-^3H]UTP, >25 Ci/mmol; PerkinElmer), 1 mM noncompeting NTP, competing NTP (5 μM for GTP, CTP, and UTP and 25 μM for ATP), and various concentrations (0 to 500 μM) of NTP analogs was preincubated at 30°C for 5 min. […] After incubation at 30°C for 20 min to 1 h, the reactions were terminated by pipetting the mixtures onto DEAE-cellulose discs (DE81; Whatman), and the products analyzed as described previously ([20], [21]).
Supplementary Table S1: RNA primer and templates used in mitochondrial RNA
polymerase single nucleotide incorporation assay.
Oligonucleotides Sequencesa
Primer (R12) 5’-[…]-3’
Templates (D18) 3’-[…]-5’
a The bold letter in the template sequences denotes the bases that pair with the incoming NTP. […]

The test system of series [4] is mitochondrial DNA-encoded cytochrome c oxidase (COX-1). Nature of the series: Mitochondrial protein synthesis assay (COX-1, MitoBiogenesis in-cell ELISA) in PC-3 cells. The class given is cell-based, human. Conditions: PC-3 cells; for selectivity of effect on COX-1 versus SDH-A and ATP levels: 5-day treatments. Summed up: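 PC-3 cells were exposed to compound for 5 days. Protein levels of nuclear-encoded SDH-A and mitochondrial-encoded COX-1 were then quantified by in-cell ELISA (quantitative immunocytochemistry).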

Series [5] in a line: Cytotoxicity in stimulated PBMCs, 5 days. Conditions: human, stimulated PBMCs.
Method: Human peripheral blood mononuclear cells (PBMCs) were isolated from human buffy coats obtained from healthy volunteers (Stanford Blood Bank, Palo Alto, CA) using standard Ficoll separation and stimulated as described elsewhere ([13]) and were tested at both quiescent and stimulated stages. Quiescent PBMCs were stimulated with 10 units per ml of recombinant human interleukin 2 (hIL-2) and 1 μg per ml phytohemagglutinin P (PHA-P) for 48 h prior to drug treatment.
(§1) All cells were cultured at 37°C in a 5% CO2 incubator with 90% humidity unless noted otherwise. […] All cells were treated with the various compounds for 5 days, except for human erythroid and myeloid progenitors, which were treated for 14 days. After the incubation period, cell viability was measured by the addition of CellTiter Glo viability reagents (Promega, Madison, WI). The luminescence signal was quantified on an Envision luminescence plate reader (PerkinElmer, Waltham, MA) after incubation of the reagents and cells for 10 min at room temperature. […] CC50 values were calculated as the average of the results of three or four independent experiments.
Human peripheral blood mononuclear cells (PBMCs) were isolated from human buffy coats
obtained from normal healthy volunteers (Stanford Medical School Blood Center, Palo Alto,
CA). Total PBMCs were isolated from buffy coats using standard Ficoll separation and sterile
cellular isolation techniques performed in a bio-safety cabinet (1). Except where noted, the
procedure was carried out at room temperature. The final PBMCs pellet was resuspended in
Logan, UT), penicillin 100 units/mL and streptomycin 100 µg/mL (Gibco). For quiescent
PBMCs cultures, total cells were seeded in 96-well plates at a density of 1 x 10^6 cells per well, followed by immediate drug treatment. Stimulated PBMCs cultures were set up by seeding the freshly isolated PBMCs in T-175cm2 tissue culture flasks in 100 mL of RPMI containing the same components as the ones used for the quiescent PBMCs but with the addition of 10 units per mL of recombinant human interleukin-2 (hIL-2, Roche, Indianapolis, IN), and 1 µg per mL phytohemagglutinin-P (PHA-P, Sigma-Aldrich, St. Louis, MO) at density of 2  10^6 cells per mL for 48 hours at 37C in a 5% CO2 incubator with 90% humidity, prior to drug treatment.
Series [6] in a line: Cytotoxicity in primary human hepatocytes, 5 days. The note with it: human, primary human hepatocytes.
Method: (§2) Primary human hepatocytes were from Bioreclamation IVT (Westbury, NY) or Life Technologies (Carlsbad, CA).
as §1
The nature of series [7]: Cytotoxicity / ATP level in PC-3 cells, 5-day treatment. Conditions: human, PC-3 cells.
Method: as §1
Cell Culture and Cytotoxicity Studies
(§3) The Huh-7 cells were maintained in growth medium containing Dulbecco's Modified Eagle
(§4) Medium (DMEM, Cellgro) supplemented with 1% Nonessential Amino Acids (NEAA, Cellgro,
(§5) Manassas, VA), 10% fetal bovine serum (FBS, HyClone, Logan, UT) and 1% Penicillin-
(§6) streptomycin-glutamate (PSG, Invitrogen, Carlsbad, CA). The cells were passaged twice weekly
(§7) and maintained at 90% confluence densities.
(§8) The HepG2 cells were maintained in Eagle’s Minimum Essential Medium (EMEM) from ATCC
(§9) (Manassas, VA) supplemented with 10% FBS, 100 units/mL penicillin and 100 µg/mL
(§10) streptomycin (P/S) (Gibco). The cells were passaged twice weekly and maintained at 90%
(§11) The PC-3 cells were maintained in Kaighn’s F12 medium (Gibco, Carlsbad, CA) supplemented
(§12) with 10% FBS (HyClone, Logan, UT), 100 units/mL penicillin and 100 µg/mL streptomycin
(§13) (P/S) (Gibco). The cells were passaged twice weekly and maintained at 90% confluence. Cells
(§14) between passages 4 and 15 were used in the assays.
(§15) The fibroblast cell line MRC-5 cell line derived from normal lung tissue, was purchased from
(§16) ATCC (Manassas, VA) and cultured in Minimum Essential Medium (MEM) (Cellgro, Manassas,
(§17) VA) supplemented with 10% FBS (HyClone, Logan, UT) and 1% PSG (Invitrogen). The cells
(§18) were passaged twice weekly and maintained at 90% confluence densities.
A short description of series [8]: Cytotoxicity in MT-4 T-cells, 5-day treatment. The note with it: human, MT-4 cells.
Method: as §2, §1
Series [9] in a line: Cytotoxicity in quiescent PBMCs, 5 days. Conditions: human, quiescent PBMCs.
The nature of series [10]: Cytotoxicity in HepG2 (galactose) cells, 5-day treatment. The note with it: human, HepG2 cells (galactose).
Method: as §1
Cell Culture and Cytotoxicity Studies
as §3, §4, §5, §6, §7, §8, §9, §10, §11, §12, §13, §14, §15, §16, §17, §18
A further series relates to Prostate cells (PC-3). Nature of the series: Cytotoxicity / ATP level in PC-3 cells, 5-day treatment. Conditions: read-out: Mean CC50 ± SD causing General cellular toxicity: ATP level; PC-3 cells, 5 days.
Series [11] deals with human myeloid progenitors (bone marrow cells). Conditions: read-out: Mean CC50 ± SD in Bone marrow cells Myeloid; 14 days; cited from earlier work.
Series [12] relates to human erythroid progenitors (bone marrow cells). Conditions: read-out: Mean CC50 ± SD in Bone marrow cells Erythroid; 14 days; cited from earlier work.
Series [13] deals with Primary human hepatocytes. Further details: method as in PMID 24419349. The note with it: 5 days, read-out: Mean CC50 ± SD in Hepatic cells (primary); cited from earlier work.
In a further series the test system is PC-3 cells. Nature of the series: Active triphosphate metabolite in PC-3 cells (LC-MS/MS). The class given is in vitro ADME, human. The note with it: 10 μM incubation, maximal concentration observed after 48 h during a 5-day incubation. As to the method: The amount of nucleoside triphosphate was determined from three independent studies by ion-pairing liquid chromatography-tandem mass spectrometry (LC-MS/MS) as previously described ([16]). All compounds were incubated with the cells at 10 μM, except for BMS-986094 and NM107, which were incubated at 0.1 and 1 μM, respectively, due to the cytotoxicity observed at higher concentrations. Triphosphate concentrations for BMS-986094 and 2′CMeC were applied at doses normalized to the concentrations anticipated after a 10 μM incubation for comparison with the other NI. The reported TP levels are the maximal concentrations observed after 48 h during a 5-day incubation.

T1 sequence (O00411 42-1230): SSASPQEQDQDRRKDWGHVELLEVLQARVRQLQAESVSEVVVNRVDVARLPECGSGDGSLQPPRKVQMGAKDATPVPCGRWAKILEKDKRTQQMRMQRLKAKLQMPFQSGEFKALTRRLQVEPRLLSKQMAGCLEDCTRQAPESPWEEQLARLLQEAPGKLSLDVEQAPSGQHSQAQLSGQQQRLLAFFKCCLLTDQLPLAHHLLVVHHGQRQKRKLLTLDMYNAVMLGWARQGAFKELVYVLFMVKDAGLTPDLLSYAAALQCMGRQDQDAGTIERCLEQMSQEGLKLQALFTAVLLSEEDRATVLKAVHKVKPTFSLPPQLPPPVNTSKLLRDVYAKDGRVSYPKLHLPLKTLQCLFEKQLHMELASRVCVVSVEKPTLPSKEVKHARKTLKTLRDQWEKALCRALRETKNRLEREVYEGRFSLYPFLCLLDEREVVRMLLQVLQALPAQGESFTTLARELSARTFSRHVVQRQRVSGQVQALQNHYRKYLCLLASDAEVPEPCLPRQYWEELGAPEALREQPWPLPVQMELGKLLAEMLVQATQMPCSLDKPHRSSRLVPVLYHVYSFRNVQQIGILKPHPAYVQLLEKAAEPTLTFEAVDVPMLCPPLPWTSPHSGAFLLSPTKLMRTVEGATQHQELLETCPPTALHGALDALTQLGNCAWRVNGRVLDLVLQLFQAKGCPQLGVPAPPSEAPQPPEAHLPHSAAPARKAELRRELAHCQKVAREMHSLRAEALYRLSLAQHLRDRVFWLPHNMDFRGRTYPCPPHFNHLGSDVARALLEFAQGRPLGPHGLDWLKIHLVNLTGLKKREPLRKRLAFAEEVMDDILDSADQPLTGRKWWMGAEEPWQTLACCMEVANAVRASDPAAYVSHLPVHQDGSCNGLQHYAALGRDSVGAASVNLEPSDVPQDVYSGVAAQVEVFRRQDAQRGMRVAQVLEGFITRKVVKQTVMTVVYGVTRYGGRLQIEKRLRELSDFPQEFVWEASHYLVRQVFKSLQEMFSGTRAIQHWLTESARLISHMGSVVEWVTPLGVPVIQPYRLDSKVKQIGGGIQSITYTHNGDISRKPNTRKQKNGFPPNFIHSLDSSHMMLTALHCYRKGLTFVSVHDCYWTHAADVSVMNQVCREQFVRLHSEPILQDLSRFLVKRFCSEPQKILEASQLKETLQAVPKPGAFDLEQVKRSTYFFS
Method for Prostate cells (PC-3): as §1
Cell Culture and Cytotoxicity Studies
as §3, §4, §5, §6, §7, §8, §9, §10, §11, §12, §13, §14, §15, §16, §17, §18

Regarding `COc1nc(N)nc2c1ncn2[C@@H]1O[C@H](COP(=O)(N[C@@H](C)C(=O)OCC(C)(C)C)Oc2cccc3ccccc23)[C@@H](O)[C@@]1(C)O` (stereo partly shown) [BMS-986094], the “selectivity of effect on spare respiratory capacity versus DNA and ATP levels” value in series [1] is listed as “selective inhibition of mitochondrial respiration”. Moreover, the CC50 in series [2] was found to be 2.6 ± 0.5 µM; in [3], 4.5 ± 1.5 µM. Besides, at recombinant human PolRMT, the “Substrate incorporation (% of NTP [mean ± SD]) of PolRMT” value is “rates similar to those of their corresponding natural rNTPs”. In addition, the “potentiation of mitochondrial and cellular toxicity by coincubation with RBV” value in [4] (5-day treatment, RBV 10 μM) was 3- to 4 fold. Also, the “selectivity of effect on COX-1 versus SDH-A and ATP levels” value in series [4] is recorded as “selective inhibition of COX-1 synthesis”.

Take `C[C@@]1(O)[C@H](O)[C@@H](CO)O[C@H]1n1ccc(N)nc1=O` [2′CMeC, 2′-C-methyl (2′CMe) cytidine]: the CC50 at 5 days in series [5] was 64 ± 18 µM; in [6], above 100 µM; in [7], 49 ± 18 µM; in [8], 19 ± 6 µM; in series [9], above 100 µM; in series [10] it was above 89 µM. Also, the CC50 at 14 days in series [2] worked out at 76 ± 16 µM; in series [3], 99 ± 18 µM.

`C[C@@]1(O)[C@H](O)[C@@H](COP(=O)(O)OP(=O)(O)OP(=O)(O)O)O[C@H]1n1cnc2c(=O)[nH]c(N)nc21` [2′CMeGTP]: at recombinant human PolRMT, the “Substrate incorporation (% of NTP [mean ± SD]) of PolRMT” value is 92 ± 33 % of NTP.

As to `C[C@@]1(F)[C@H](O)[C@@H](CO)O[C@H]1n1ccc(N)nc1=O` [PSI-6130], the CC50 at 5 days is 100 µM in series [5]; above 100 µM in [6]; above 100 µM in series [7]; above 100 µM in [8]; above 100 µM in series [9]; above 89 µM in series [10]. For the same compound, the “Substrate incorporation (% of NTP [mean ± SD]) of PolRMT” value on recombinant human PolRMT is recorded as 0.81 ± 0.13 % of NTP. In addition, the CC50 in the series with Prostate cells (PC-3) is above 100 µM.

`CCOc1nc(N)nc2c1ncn2[C@@H]1O[C@@H]2COP(=O)(OC(C)C)O[C@H]2[C@@]1(C)F` (stereo partly shown) [PSI-938]: the CC50 at 5 days was above 100 µM in series [5]; above 100 µM in series [6]; above 100 µM in [7]; above 100 µM in series [8]; above 100 µM in series [9]; above 89 µM in series [10]. In addition, the CC50 at 14 days in series [2] and in series [3] was above 100 µM each time. In addition, at recombinant human PolRMT, the “Substrate incorporation (% of NTP [mean ± SD]) of PolRMT” value is 1.6 ± 0.2 % of NTP. For the same compound, the CC50 with Prostate cells (PC-3) is above 100 µM.

On to `CC(C)OC(=O)[C@H](C)N[P@](=O)(OC[C@H]1O[C@@H](n2ccc(=O)[nH]c2=O)[C@](C)(F)[C@@H]1O)Oc1ccccc1` [Sofosbuvir], for which the “Substrate incorporation (% of NTP [mean ± SD]) of PolRMT” value was 0.45 ± 0.40 % of NTP on recombinant human PolRMT and < 1 % of NTP on recombinant human PolRMT (listed as sofosbuvir). Also, the CC50 (in series [11]; in the series with Prostate cells (PC-3); in [12]) was above 100 µM each time.

Turning to `[N-]=[N+]=N[C@]1(CO)O[C@@H](n2ccc(N)nc2=O)[C@H](O)[C@@H]1O` [4′-AzidoC, 4′-azido cytidine], the CC50 at 5 days was above 100 µM in series [5]; above 100 µM in [6]; 30 ± 6 µM in series [7]; above 100 µM in series [8]; above 100 µM in series [9]; above 89 µM in series [10]. The “selectivity of effect on spare respiratory capacity versus DNA and ATP levels” value in series [1] is reported as “selective inhibition of mitochondrial respiration”. The CC50 at 14 days in series [2] was 108 ± 12 µM; in series [3] it was above 100 µM. Besides, the “selectivity of effect on COX-1 versus SDH-A and ATP levels” value in [4] is recorded as “selective inhibition of COX-1 synthesis”.

For `CC(C)OC(=O)[C@H](C)N[P@](=O)(OC[C@H]1O[C@@](C#N)(c2ccc3c(N)ncnn23)[C@](C)(O)[C@@H]1OC(=O)C(C)C)Oc1ccccc1` [GS-6620], the CC50 was above 100 µM in [13], 3.1 ± 2.6 µM in series [11] and 15 ± 7 µM in series [12]. In addition, the “Mean TP concn ± SD” value with PC-3 cells is “BLQ”.

The values are drawn from PMC4750701, “Role of Mitochondrial RNA Polymerase in the Toxicity of Nucleotide Inhibitors of Hepatitis C Virus” (Antimicrobial Agents and Chemotherapy, 2016).
